# According to ChEMBL document CHEMBL1142200, “Efficacy of delayed treatment with ST-246 given orally against systemic orthopoxvirus infections in mice” (Antimicrob Agents Chemother, 2007):
# Activity calls are given as the source filed them. The rule behind the calls is not given here.
# Legend:
# Mus musculus [1] = test: Effect on mortality of A/NCr mouse inoculated with 4100 PFU ectromelia virus at 100 mg/kg after 24 hrs of viral infection, po twice daily for 14 days; type: functional
# Mus musculus [2] = test: Effect on mortality of BALB/c mouse inoculated with Vaccinia virus WR at 100 mg/kg after 4 hrs of viral infection, po once daily for 10 days relative to control; type: functional
# Ectromelia virus [3] = test: Reduction of Ectromelia virus replication in BALB/c mouse nasal wash at 100 mg/kg, po once daily after 6 days; type: functional, organism-based; design: dose 100 mg/kg
# [4] = Selectivity index, ratio of CC50 for HFF cells to EC50 for Vaccinia virus WR infected HFF cells; type: functional
# Ectromelia virus [5] = test: Reduction of Ectromelia virus replication in BALB/c mouse liver at 100 mg/kg, po once daily after 14 days; type: functional, organism-based; design: dose 100 mg/kg
# [6] = Selectivity index, ratio of CC50 for HFF cells to EC50 for Cowpox virus Brighton infected HFF cells; type: functional
# Mus musculus [7] = test: Effect on mortality of BALB/c mouse inoculated with Cowpox virus BR at 100 mg/kg after 24 hrs of viral infection, po once daily for 7 days relative to control; type: functional
# Ectromelia virus [8] = test: Reduction of Ectromelia virus replication in BALB/c mouse trachea at 100 mg/kg, po once daily after 6 days; type: functional, organism-based; design: dose 100 mg/kg
# Ectromelia virus [9] = test: Reduction of Ectromelia virus replication in BALB/c mouse esophagus at 100 mg/kg, po once daily after 6 days; type: functional, organism-based; design: dose 100 mg/kg
# Mus musculus [10] = test: Effect on mortality of A/NCr mouse inoculated with ectromelia virus at 100 mg/kg after 24 hrs of viral infection, po once daily for 10 days relative control; type: functional
# Mus musculus [11] = test: Effect on mortality of BALB/c mouse inoculated with Cowpox virus BR at 100 mg/kg after 4 hrs of viral infection, po once daily for 7 days relative to control; type: functional
# Ectromelia virus [12] = test: Reduction of Ectromelia virus replication in BALB/c mouse lung at 100 mg/kg, po once daily after 4 days; type: functional, organism-based; design: dose 100 mg/kg
# Mus musculus [13] = test: Effect on mortality of BALB/c mouse inoculated with Cowpox virus at 10 mg/kg after 4 hrs of viral infection, po once daily for 14 days relative to control; type: functional
# Mus musculus [14] = test: Effect on mortality of BALB/c mouse inoculated with Cowpox virus BR at 50 mg/kg after 24 hrs of viral infection, po for 9 days; type: functional, organism-based; design: dose 50 mg/kg
# Ectromelia virus [15] = test: Reduction of Ectromelia virus replication in BALB/c mouse spleen at 100 mg/kg, po once daily after 6 days; type: functional, organism-based; design: dose 100 mg/kg
# Mus musculus [16] = test: Effect on mortality of A/NCr mouse inoculated with ectromelia virus at 100 mg/kg after 0 hrs of viral infection, po once daily for 10 days relative control; type: functional
# Mus musculus [17] = test: Effect on mortality of BALB/c mouse inoculated with Cowpox virus BR at 100 mg/kg after 4 hrs of viral infection, po once daily for 5 days relative to control; type: functional
# Cowpox virus [18] = test: Reduction of Cowpox virus BR replication in BALB/c mouse liver at 50 mg/kg after 24 hrs of viral infection, po for 9 days; type: functional, organism-based; design: dose 50 mg/kg
# Mus musculus [19] = test: Effect on mortality of BALB/c mouse inoculated with Cowpox virus at 100 mg/kg after 4 hrs of viral infection, po once daily for 14 days relative to control; type: functional
# Mus musculus [20] = test: Effect on mortality of BALB/c mouse inoculated with Vaccinia virus WR at 100 mg/kg after 24 hrs of viral infection, po once daily for 10 days relative to control; type: functional
# Ectromelia virus [21] = test: Reduction of Ectromelia virus replication in BALB/c mouse lung at 100 mg/kg, po once daily after 8 days; type: functional, organism-based; design: dose 100 mg/kg
# Ectromelia virus [22] = test: Reduction of Ectromelia virus replication in BALB/c mouse lung at 100 mg/kg, po once daily after 14 days; type: functional, organism-based; design: dose 100 mg/kg
# [23] = Selectivity index, ratio of CC50 for HFF cells to EC50 for Vaccinia virus Copenhagen infected HFF cells; type: functional
# Ectromelia virus [24] = test: Reduction of Ectromelia virus replication in BALB/c mouse liver at 100 mg/kg, po once daily after 8 days; type: functional, organism-based; design: dose 100 mg/kg
# Mus musculus [25] = test: Effect on mortality of A/NCr mouse inoculated with 41 PFU ectromelia virus at 100 mg/kg after 24 hrs of viral infection, po twice daily for 14 days; type: functional
# Ectromelia virus [26] = test: Reduction of Ectromelia virus replication in BALB/c mouse liver at 100 mg/kg, po once daily after 6 days; type: functional, organism-based; design: dose 100 mg/kg
# Cowpox virus [27] = test: Reduction of Cowpox virus BR replication in BALB/c mouse kidney at 50 mg/kg after 24 hrs of viral infection, po for 9 days; type: functional, organism-based; design: dose 50 mg/kg
# Mus musculus [28] = test: Effect on mortality of BALB/c mouse inoculated with Vaccinia virus WR at 100 mg/kg after 24 hrs of viral infection, po once daily for 7 days relative to control; type: functional
# Vaccinia virus = test: Reduction of Vaccinia virus WR replication in BALB/c mouse kidney at 50 mg/kg after 24 hrs of viral infection, po for 9 days; type: functional, organism-based; design: dose 50 mg/kg; conditions: Orthopoxvirus vaccinia
# Mus musculus [29] = test: Effect on mortality of BALB/c mouse inoculated with Cowpox virus BR at 100 mg/kg after 24 hrs of viral infection, po once daily for 10 days relative to control; type: functional
# Ectromelia virus [30] = test: Reduction of Ectromelia virus replication in BALB/c mouse trachea at 100 mg/kg, po once daily after 14 days; type: functional, organism-based; design: dose 100 mg/kg
# Mus musculus [31] = test: Effect on mortality of BALB/c mouse inoculated with Cowpox virus at 30 mg/kg after 72 hrs of viral infection, po once daily for 14 days relative to control; type: functional
smiles,measurement,setting,value
O=C(NN1C(=O)[C@@H]2[C@@H]3C=C[C@@H]([C@H]4C[C@@H]34)[C@@H]2C1=O)c1ccc(C(F)(F)F)cc1 [TECOVIRIMAT],Activity,Mus musculus [1],0%
same,Activity,Mus musculus [2],33%
same,Activity,Ectromelia virus [3],inactive
same,Ratio CC50/EC50,[4],>1000
same,Activity,Ectromelia virus [5],Active
same,Ratio CC50/EC50,[6],>208
same,Activity,Mus musculus [7],40%
same,Activity,Ectromelia virus [8],Active
same,Activity,Ectromelia virus [9],Active
same,Activity,Mus musculus [10],0%
same,Activity,Mus musculus [11],7%
same,Activity,Ectromelia virus [12],Active
same,Activity,Mus musculus [13],92%
same,Activity,Mus musculus [14],Active
same,Activity,Ectromelia virus [15],Active
same,Activity,Mus musculus [16],0%
same,Activity,Mus musculus [17],87%
same,Activity,Cowpox virus [18],Active
same,Activity,Mus musculus [19],11%
same,Activity,Mus musculus [20],0%
same,Activity,Ectromelia virus [21],Active
same,Activity,Ectromelia virus [22],Active
same,Ratio CC50/EC50,[23],>2000
same,Activity,Ectromelia virus [24],Active
same,Activity,Mus musculus [25],0%
same,Activity,Ectromelia virus [26],Active
same,Activity,Cowpox virus [27],Active
same,Activity,Mus musculus [28],7%
same,Activity,Vaccinia virus,Active
same,Activity,Mus musculus [29],40%
same,Activity,Ectromelia virus [30],Active
same,Activity,Mus musculus [31],40%
